In patent US11840560B2, “Prodrugs and uses thereof” (Novo Nordisk A/S, priority 2022, dated 2023):
Marks after values point to notes of the source that are not given here. *1 amine or outer side, *2 acyl side, *3 side chain or, on linkers, in order; H or OH if unused. Where a SMILES comes first, the peptide text is derived from it. Side-chain parts run from the residue outwards. [ ]: non-standard residue; d: D form. The star is where a group is joined. C18 diacid = O=C(O)CCCCCCCCCCCCCCCCC(=O)*; C16 diacid = O=C(O)CCCCCCCCCCCCCCC(=O)*; γGlu = O=C(O)[C@H](CCC(=O)[*:2])N[*:1]; εLys = N[C@@H](CCCCN[*:1])C(=O)[*:2]; AEEA = NCCOCCOCC(=O)O; Aib = CC(C)(N)C(=O)O; Sar = CNCC(=O)O

Experiments:
in vivo [1] = test: in vivo; parameters: species or system beagle dogs; details: dog, po, 300 mg; for Tmax / half-life: male, beagle
Procedure: The purpose of this method is to determine the terminal half-life and plasma exposure in vivo of the compounds of the present invention after p.o. administration to beagle dogs, i.e. the terminal half-life and concentration of test substance that reaches circulation with time. This is done in a pharmacokinetic (PK) study, where these parameters of the compound in question are determined. By terminal half-life is generally meant the period of time it takes to halve a certain plasma concentration, measured after the initial distribution phase.
Tablet compositions comprising the test compounds obtained from Example 1 and SNAC (sodium N-(8-(2-hydroxybenzoyl)amino)caprylate) were prepared according to methods known to the person skilled in the art by mixing test substance with roller compacted SNAC and magnesium stearate as e.g. described in WO 2019/149880. Each tablet was comprised of 7.7 mg magnesium stearate, 2-4 mg of each compound tested, and 300 mg SNAC.
Male beagle dogs, 1-7 years of age and weighing 9-17 kg during the study period, were included in the study. The dogs were dosed in a fasting state. The dogs were group housed in pens (12 hours light: 12 hours dark), and fed individually and restrictedly once daily with Royal Canin Medium Adult dog food (Royal Canin Products, China Branch, or Brogaarden A/S, Denmark). The dogs were used for repeated PK studies with a suitable wash-out period between successive dosing. An appropriate acclimatisation period was given prior to initiation of the first PK study. All handling, dosing, and blood sampling of the animals were performed by trained and skilled staff. Before the studies, the dogs were fasted overnight and from 0 to 4 hours after dosing. The dogs were restricted to water 1 hour before dosing until 4 hours after dosing, but otherwise had adlibitum access to water during the whole period.
The compositions were administered by a single oral dosing to the dogs in groups of 6-8 dogs. The tablets were administered in the following manner: 10 min prior to tablet administration, the dogs may be dosed subcutaneously with approximately 3 nmol/kg of SEQ ID NO.: 7 ([…]), then tablets were placed in the back of the mouth of the dog to prevent chewing. The mouth was then closed, and 10 mL of tap water was given by syringe or gavage to facilitate swallowing of the tablet.
One blood sample was drawn before dosing, and additional samples were drawn at predefined time points after dosing, such as for up to 600 hours, to adequately cover the full plasma concentration-time absorption profile of the test substance. For each blood sample time point, approximately 0.8 mL of whole blood was collected in a 1.5 mL EDTA-coated tube, which was gently turned to mix the sample with EDTA. Blood samples were collected in EDTA buffer (8 mM) and then centrifuged at 4° C. and 2000 g for 10 minutes. Plasma was pipetted into Micronic tubes on dry ice, and kept at −20° C. or lower until analysis. Blood samples were taken as appropriate, for example from a venflon in the cephalic vein in the front leg for the first 2 hours and then with syringe from the jugular vein for the rest of the time points. The first few drops were allowed to drain from the venflon to avoid heparin saline from the venflon in the sample. All blood samples were collected into test tubes containing EDTA for stabilisation and kept on ice until centrifugation. Plasma was separated from whole blood by centrifugation and the plasma was stored at −20° C. or lower until analysis.
The plasma was analysed for test substance using LC-MS (Liquid Chromatography-Mass Spectrometry) as known to the person skilled in the art. […]

in vivo [2] = test: in vivo; parameters: species or system Göttingen minipigs; details: female, Göttingen, minipig, iv
Procedure: The purpose of this method is to determine the half-life in vivo of the derivatives of the present invention after i.v. administration to minipigs, i.e. the prolongation of their time in the body and thereby their time of action. This is done in a pharmacokinetic (PK) study, where the terminal half-life of the derivative in question is determined. By terminal half-life is generally meant the period of time it takes to halve a certain plasma concentration, measured after the initial distribution phase.
Female Göttingen minipigs were obtained from Ellegaard Göttingen Minipigs (Dalmose, Denmark) approximately 7-14 months of age and weighing from approximately 16-35 kg were used in the studies. The minipigs were housed individually and fed restrictedly once daily with SDS minipig diet (Special Diets Services, Essex, UK).
After at 3 weeks of acclimatisation two permanent central venous catheters were implanted in vena cava caudalis in each animal. The animals were allowed 1 week recovery after the surgery, and were then used for repeated pharmacokinetic studies with a suitable wash-out period between successive derivative dosing.
The animals were fasted for approximately 18 hours before dosing and from 0 to 4 hours after dosing but had ad libitum access to water during the whole period.
The sodium salts of compounds of Examples 1 were prepared using method SX_A under General Methods for preparation of the compounds of the invention. The resulting sodium salts were dissolved to a concentration of 50-300 nmol/mL in a buffer containing 0.007% polysorbate 20, 50 mM sodium phosphate, 70 mM sodium chloride, pH 7.4. Intravenous injections (the volume corresponding to usually 1-20 nmol/kg, for example 0.02-0.05 mL/kg) of the compounds were given through one catheter, and blood was sampled at predefined time points for up to 21 days post dosing (preferably through the other catheter). Blood samples (for example 0.8 mL) were collected in 8 mM EDTA buffer and then centrifuged at 4° C. and 1942 g for 10 minutes.
Plasma was pipetted into Micronic tubes on dry ice and kept at −20° C. until analysed for plasma concentration of the compounds using ELISA, or a similar antibody-based assay, or LCMS. Individual plasma concentration-time profiles were analysed by a non-compartmental model in Phoenix WinNonLin ver. 6.4. (Pharsight Inc., Mountain View, CA, USA), and the resulting terminal half-lives (harmonic mean) determined.
The terminal half-lives and/or the observed terminal half-lives, measured as described herein in General Methods for Measuring Terminal Half-Life in Minipigs are shown in Table 7. […] This provides evidence that conversion of prodrug to parent compound is occurring in vivo. The terminal half-life of the prodrug may be faster or slower than the corresponding parent compound due to the contribution of conversion on the terminal half-life of the prodrug.

physchem = assay type: physicochemical; details: buffer, pH 7.4
Procedure: The assay was performed to investigate the conversion half-life of prodrug to drug of the prodrugs of the invention. The conversion half-life was investigated in vitro at pH 7.4 upon incubation at 37° C.
Test compounds were dissolved to a concentration of 100 μM in phosphate-buffered saline (140 mM NaCl, 2.07 mM KCl, 8.05 mM Na2HPO4, 1.96 mM KH2PO4, pH 7.4). Solution pH was measured after dissolution and adjusted to pH 7.4 with aqueous NaOH if necessary. The solution was filtered through a 0.22 μm syringe filter, then incubated in a water bath at 37° C. Aliquots were withdrawn at defined timepoints, e.g. every 24-72 hours, for LCMS analysis.
LCMS analysis was performed using the procedure defined in LCMS_A above. The AUC of the prodrug, active drug, and DKP were determined using UV detection at 214 nm, and the ratio of prodrug AUC over total AUC of prodrug plus active drug plus DKP was calculated. The negative natural logarithm of this ratio was plotted over time, and a linear regression of this relationship was then performed.
The prodrug to drug conversion half-life of the compounds of the invention was measured as described in General Methods for Measuring Conversion Half-life.

Compound	AUC/Dose (in vivo [1])	Cmax/Dose (in vivo [1])	Tmax (in vivo [1])	half-life (in vivo [1])	half-life (in vivo [2])	half-life at 100 μM (physchem)
CC[C@H](C)[C@H](NC(=O)[C@H](Cc1ccccc1)NC(=O)[C@H](CCC(=O)O)NC(=O)[C@H](CCCNC(=N)N)NC(=O)[C@H](C)NC(=O)[C@H](C)NC(=O)[C@H](CCC(N)=O)NC(=O)[C@H](CCC(=O)O)NC(=O)[C@H](CCC(=O)O)NC(=O)[C@H](CC(C)C)NC(=O)[C@H](CC(C)C)NC(=O)[C@@H](NC(=O)[C@H](CO)NC(=O)[C@H](Cc1ccc(O)cc1)NC(=O)[C@H](CC(=O)O)NC(=O)[C@H](CO)NC(=O)[C@@H](NC(=O)[C@H](Cc1ccccc1)NC(=O)[C@@H](NC(=O)CNC(=O)[C@H](CCC(=O)O)NC(=O)C(C)(C)NC(=O)[C@@H](N)Cc1ccc(O)cc1)[C@@H](C)O)[C@@H](C)O)[C@@H](C)CC)C(=O)N[C@@H](CCC(=O)O)C(=O)N[C@@H](Cc1c[nH]c2ccccc12)C(=O)N[C@@H](CC(C)C)C(=O)N[C@@H](CC(C)C)C(=O)N[C@@H](C)C(=O)NCC(=O)NCC(=O)N1CCC[C@H]1C(=O)N[C@@H](CO)C(=O)N[C@@H](CCCCNC(=O)COCCOCCNC(=O)COCCOCCNC(=O)CC[C@H](NC(=O)CCCCCCCCCCCCCCC(=O)O)C(=O)O)C(=O)NCC(=O)N[C@@H](C)C(=O)N1CCC[C@H]1C(=O)N1CCC[C@H]1C(=O)N1CCC[C@H]1C(=O)N[C@@H](CO)C(=O)O [Parent compound 1] (H-Y[Aib]EGTFTSDYSILLEEQAAREFIEWLLAGGPSK([AEEA-AEEA-γGlu-C16 diacid])GAPPPS-OH)	60.7 kg·h/L	0.67 kg/L	1.5 h	4.33 days	5.04 days	
CC[C@H](C)[C@H](NC(=O)[C@H](Cc1ccccc1)NC(=O)[C@H](CCC(=O)O)NC(=O)[C@H](CCCNC(=N)N)NC(=O)[C@H](C)NC(=O)[C@H](C)NC(=O)[C@H](CCC(N)=O)NC(=O)[C@H](CCC(=O)O)NC(=O)[C@H](CCC(=O)O)NC(=O)[C@H](CC(C)C)NC(=O)[C@H](CC(C)C)NC(=O)[C@@H](NC(=O)[C@H](CO)NC(=O)[C@H](Cc1ccc(O)cc1)NC(=O)[C@H](CC(=O)O)NC(=O)[C@H](CO)NC(=O)[C@@H](NC(=O)[C@H](Cc1ccccc1)NC(=O)[C@@H](NC(=O)CNC(=O)[C@H](CCC(=O)O)NC(=O)C(C)(C)NC(=O)[C@@H](N)Cc1ccc(O)cc1)[C@@H](C)O)[C@@H](C)O)[C@@H](C)CC)C(=O)N[C@@H](CCC(=O)O)C(=O)N[C@@H](Cc1c[nH]c2ccccc12)C(=O)N[C@@H](CC(C)C)C(=O)N[C@@H](CC(C)C)C(=O)N[C@@H](C)C(=O)NCC(=O)NCC(=O)N1CCC[C@H]1C(=O)N[C@@H](CO)C(=O)N[C@@H](CCCCNC(=O)[C@@H](N)CCCCNC(=O)[C@@H](N)CCCCNC(=O)CC[C@H](NC(=O)CCCCCCCCCCCCCCC(=O)O)C(=O)O)C(=O)NCC(=O)N[C@@H](C)C(=O)N1CCC[C@H]1C(=O)N1CCC[C@H]1C(=O)N1CCC[C@H]1C(=O)N[C@@H](CO)C(=O)O [Parent compound 2] (H-Y[Aib]EGTFTSDYSILLEEQAAREFIEWLLAGGPSK([εLys-εLys-γGlu-C16 diacid])GAPPPS-OH)					4.33 days	
CC[C@H](C)[C@H](NC(=O)[C@H](Cc1ccccc1)NC(=O)[C@H](CCC(=O)O)NC(=O)[C@H](CCCNC(=N)N)NC(=O)[C@H](C)NC(=O)[C@H](C)NC(=O)[C@H](CCC(N)=O)NC(=O)[C@H](CCCCNC(=O)[C@@H](N)CCCCNC(=O)[C@@H](N)CCCCNC(=O)CC[C@H](NC(=O)CCCCCCCCCCCCCCCCC(=O)O)C(=O)O)NC(=O)[C@H](CCC(=O)O)NC(=O)[C@H](CC(C)C)NC(=O)[C@H](CC(C)C)NC(=O)[C@@H](NC(=O)[C@H](CO)NC(=O)[C@H](Cc1ccc(O)cc1)NC(=O)[C@H](CC(=O)O)NC(=O)[C@H](CO)NC(=O)[C@@H](NC(=O)[C@H](Cc1ccccc1)NC(=O)[C@@H](NC(=O)CNC(=O)[C@H](CCC(=O)O)NC(=O)C(C)(C)NC(=O)[C@@H](N)Cc1ccc(O)cc1)[C@@H](C)O)[C@@H](C)O)[C@@H](C)CC)C(=O)N[C@@H](CCC(=O)O)C(=O)N[C@@H](Cc1c[nH]c2ccccc12)C(=O)N[C@@H](CC(C)C)C(=O)N[C@@H](CC(C)C)C(=O)N[C@@H](C)C(=O)NCC(=O)NCC(=O)N1CCC[C@H]1C(=O)N[C@@H](CO)C(=O)N[C@@H](CO)C(=O)NCC(=O)N[C@@H](C)C(=O)N1CCC[C@H]1C(=O)N1CCC[C@H]1C(=O)N1CCC[C@H]1C(=O)N[C@@H](CO)C(=O)O [Parent compound 4] (H-Y[Aib]EGTFTSDYSILLEK([εLys-εLys-γGlu-C18 diacid])QAAREFIEWLLAGGPSSGAPPPS-OH)	17.9* kg*h/L	0.35* kg/L			4.42 days	
H-K([Gly-γGlu-C16 diacid])[Sar]Y[Aib]EGTFTSDYSILLEEQAAREFIEWLLAGGPSK([AEEA-AEEA-γGlu-C16 diacid])GAPPPS-OH [Compound 9]					4.25 days	5.5 days

Results, then the compound that gave them:

AUC/Dose (in vivo [1])	Cmax/Dose (in vivo [1])	Tmax (in vivo [1])	half-life (in vivo [1])	half-life (in vivo [2])	half-life at 100 μM (physchem)	Compound
20.1 kg·h/L	0.21 kg/L	1.5 h	5.71 days	7.08 days		H-K([γGlu-C16 diacid])VY[Aib]EGTFTSDYSILLEEQAAREFIEWLLAGGPSK([AEEA-AEEA-γGlu-C16 diacid])GAPPPS-OH [Non-converting compound 1]
38.5 kg·h/L	0.32 kg/L	7 h	5.79 days	4.96 days	4.62 days	H-K([γGlu-C16 diacid])[Sar]Y[Aib]EGTFTSDYSILLEEQAAREFIEWLLAGGPSK([AEEA-AEEA-γGlu-C16 diacid])GAPPPS-OH [Compound 3]
				4.92 days	8.12 days	H-[dK]([AEEA-AEEA-γGlu-C16 diacid])[Sar]Y[Aib]EGTFTSDYSILLEEQAAREFIEWLLAGGPSK([AEEA-AEEA-γGlu-C16 diacid])GAPPPS-OH [Compound 10]
